Source: patent US10800741B2 (ANCUREALL PHARMACEUTICAL (SHANGHAI) CO., LTD., priority 2017, dated 2020)

Legend:
Format in all cases: cell-based, Human
H1581 (FGFR1 amp) = assay: In vitro growth inhibition of H1581 tumor cells (MTT/CCK8); conditions: Homo sapiens, NCI-H1581; in vitro growth inhibition (or induction of apoptosis), cells cultured 3 to 5 days, MTT (CCK8); read-out: IC50 H1581 (FGFR1 amp)
KATO III (FGFR2 amp) = assay: In vitro growth inhibition of KATO III tumor cells (MTT/CCK8); conditions: Homo sapiens, KATO III; in vitro growth inhibition (or induction of apoptosis), cells cultured 3 to 5 days, MTT (CCK8); read-out: IC50 KATO III (FGFR2 amp)
Hep3B2 (FGFR3/4+++) = assay: In vitro growth inhibition of Hep3B2 tumor cells (MTT/CCK8); conditions: Homo sapiens, Hep3B; in vitro growth inhibition (or induction of apoptosis), cells cultured 3 to 5 days, MTT (CCK8); read-out: IC50 Hep3B2 (FGFR3/4+++)
Source text: (§1) Tumor cell lines are an effective model for studying in vitro tumor growth inhibition. In the present invention, a representative tumor cell line was selected to determine the cell growth inhibition activity of the present compound. All cell lines used were from ATCC, DSMZ, and cell banks of the Chinese Academy of Sciences. Cell culture conditions and methods were in accordance with the requirements of each cell line. Cells were subcultured in vitro for no more than 3 generations each time, and as required, single-clone purification and identification of cell lines could be carried out.
(§2) The cell culture media used were RPMI1640 (Gibco), DMEM (Gibco), MEM (Gibco), L15 (Gibco), IMDM (Gibco), McCOY'S5A, and William's (Gibco). 5-20% fetal bovine serum (Gibco), 1% double antibiotic, 2 mM glutamine, or 1 mM sodium pyruvate were added. The names, species, major gene characteristics, culture media and cell sources of the cell lines used are shown in table 1, wherein “amp” refers to gene amplification. “+++” refers to gene overexpression. The main genetic characteristics of cells were obtained from the COSMIC Cell Lines Project and related research papers, respectively.
(§3) Adherent cells were digested with 0.25% trypsin-EDTA (Gibco). Suspension culture cells were collected by centrifugation (1700 rpm, 3 minutes). The supernatant was discarded and the cells were counted. According to each cell growth cycle, different concentrations of cells were prepared (5˜10×10^4 cells per ml), and inoculated to 96-well plates (Corning), with 100 μl per well, and incubated overnight at 37° C., 5% CO2. The next day, the test compound was added to the cultured cells (2 wells in parallel). The final concentration of the solvent was less than 1/1,000. The cells were further cultured for 3 to 5 days and assayed by MTT.
(§4) The compound was stored at a concentration of 10 mM at −20° C. and diluted to 2- or 10-fold series prior to use. BGJ398 and AC220 were synthesized according to the methods of WO2006420A1 and US2007232604A1, respectively.
(§5) The adherent cells were taken out from the cell culture medium, and immediately added to a freshly prepared complete medium containing 10% CCK8 (5% FBS), 100 ul per hole. The suspended cells were directly added to a CCK8 reagent until reaching a final concentration of 10% and cultured for 1 to 4 hours.
(§6) T=optical density of drug-treated cell wells−optical density of blank control wells; T0=optical density of cell wells before drug treatment−optical density of blank control wells; C=optical density of solvent control wells−optical density of blank control wells. […] The experiments were repeated 1 to 3 times and a statistical analysis of data was conducted.

MOLM-13 (FLT3-ITD) = assay: In vitro growth inhibition of MOLM-13 tumor cells (MTT/CCK8); conditions: Homo sapiens, MOLM-13; in vitro growth inhibition (or induction of apoptosis), cells cultured 3 to 5 days, MTT (CCK8); read-out: IC50 MOLM-13 (FLT3-ITD)
KCL-22 (BCR-ABL) = assay: In vitro growth inhibition of KCL-22 tumor cells (MTT/CCK8); conditions: Homo sapiens, KCL-22; in vitro growth inhibition (or induction of apoptosis), cells cultured 3 to 5 days, MTT (CCK8); read-out: IC50 KCL-22 (BCR-ABL)
Source text: as §1, §2, §3, §4, §5, §6

Kasumi-1 (KIT N822K) = assay: In vitro growth inhibition of Kasumi-1 tumor cells (MTT/CCK8); conditions: Homo sapiens, Kasumi 1; in vitro growth inhibition (or induction of apoptosis), cells cultured 3 to 5 days, MTT (CCK8); read-out: IC50 Kasumi-1 (KIT N822K)
Source text: as §1, §2, §3, §4, §5, §6

H1703 (PDGFRa amp) = assay: In vitro growth inhibition of H1703 tumor cells (MTT/CCK8); conditions: Homo sapiens, NCI-H1703; in vitro growth inhibition (or induction of apoptosis), cells cultured 3 to 5 days, MTT (CCK8); read-out: IC50 H1703 (PDGFRa amp)
Source text: as §1, §2, §3, §4, §5, §6

Karpas 299 (NPM-ALK) = assay: In vitro growth inhibition of Karpas 299 tumor cells (MTT/CCK8); conditions: Homo sapiens, KARPAS-299; in vitro growth inhibition (or induction of apoptosis), cells cultured 3 to 5 days, MTT (CCK8); read-out: IC50 Karpas 299 (NPM-ALK)
Source text: as §1, §2, §3, §4, §5, §6

Structure (SMILES)	IC50 (H1581 (FGFR1 amp)) [nM]	IC50 (KATO III (FGFR2 amp)) [nM]	IC50 (Hep3B2 (FGFR3/4+++)) [nM]	IC50 (MOLM-13 (FLT3-ITD)) [nM]	IC50 (KCL-22 (BCR-ABL)) [nM]	IC50 (Kasumi-1 (KIT N822K)) [nM]	IC50 (H1703 (PDGFRa amp)) [nM]	IC50 (Karpas 299 (NPM-ALK)) [nM]
COCCNC(=O)c1cc2c(Oc3ccc(NC(=O)Nc4cc(C(C)(C)C)on4)c(Cl)c3)ccnc2cc1OC [Compound 17, 4-{4-[3-(5-tert-butyl-isoxazol-3-yl)-ureido]-3-chloro-phenoxy}-7-methoxyquinolin-6-carboxylic acid (2-methoxy-ethyl)-amide]	31.4	3.9	84.9	7.72	23.1	71.4	168	770
COc1cc2nccc(Oc3ccc(NC(=O)Nc4cc(C(C)(C)C)on4)c(Cl)c3)c2cc1[N+](=O)[O-] [Compound 18, 1-(5-tert-butyl-isoxazol-3-yl)-3-[2-chloro-4-(7-methoxy-6-nitro-quinolin-4-yloxy)-phenyl]-urea]	224	6.73	638	410	83.6	59.6	68	> 1000
COc1cc2nccc(Oc3ccc(NC(=O)Nc4cc(C(C)(C)C)on4)c(Cl)c3)c2cc1C#N [Compound 19, 1-(5-tert-butyl-isoxazol-3-yl)-3-[2-chloro-4-(6-cyano-7-methoxy-quinolin-4-yloxy)-phenyl]-urea]	788	46.8	> 1000	632	150	131	172	> 1000
C=CC(=O)Nc1cc2c(Oc3ccc(NC(=O)Nc4cc(C(C)(C)C)on4)c(Cl)c3)ccnc2cc1OC [Compound 22, N-(4-{4-[3-(5-tert-butyl-isoxazol-3-yl)-ureido]-3-chloro-phenoxy}-7-methoxyquinolin-6-yl)-acrylamide]	40.7	8.54	18.7	16.9	61.7	91.7	27.8	610
COc1cc2nccc(Oc3ccc(NC(=O)Nc4cc(C(C)(C)C)on4)c(Cl)c3)c2cc1NC(=O)C1CCCC1 [Compound 23, cyclopentane carboxylic acid (4-{4-[3-(5-tert-butyl-isoxazol-3-yl)-ureido]-3-chloro-phenoxy}-7-methoxyquinolin-6-yl)-amide]	227	10.5	214	94.9	436	547	420	> 1000
CCC(=O)n1nc(C(C)(C)C)cc1NC(=O)Nc1ccc(Oc2ccnc3cc(OC)c(C(N)=O)cc23)cc1Cl [Compound 29, 4-{4-[3-(5-tert-butyl-2-propanoyl-2H-pyrazol-3-yl)-ureido]-3-chloro-phenoxy}-7-methoxyquinolin-6-carboxamide]	26.3	1.48	29.4	11.5	29.4	66.8	18	626

The next molecules have a lower IC50 (H1581 (FGFR1 amp)) than those just listed; values first:

IC50 (H1581 (FGFR1 amp)) [nM]	IC50 (KATO III (FGFR2 amp)) [nM]	IC50 (Hep3B2 (FGFR3/4+++)) [nM]	IC50 (MOLM-13 (FLT3-ITD)) [nM]	IC50 (KCL-22 (BCR-ABL)) [nM]	IC50 (Kasumi-1 (KIT N822K)) [nM]	IC50 (H1703 (PDGFRa amp)) [nM]	IC50 (Karpas 299 (NPM-ALK)) [nM]	Structure (SMILES)
17.4	0.73	24.2	6.53	25.1	32.5	17.1	698	C=CC(=O)n1nc(C(C)(C)C)cc1NC(=O)Nc1ccc(Oc2ccnc3cc(OC)c(C(N)=O)cc23)cc1Cl [Compound 28, 4-{4-[3-(2-acryloyl-5-tert-butyl-2H-pyrazol-3-yl)-ureido]-3-chloro-phenoxy}-7-methoxyquinolin-6-carboxamide]
17.4	2.8	37.5	7.07	26.6	88.9	157	398	CCC(=O)Nc1cc2c(Oc3ccc(NC(=O)Nc4cc(C(C)(C)C)on4)c(Cl)c3)ccnc2cc1OC [Compound 21, N-(4-{4-[3-(5-tert-butyl-isoxazol-3-yl)-ureido]-3-chloro-phenoxy}-7-methoxyquinolin-6-yl)-propionamide]
10.5	2.16	24.1	5.56	8.97	33.3	10.2	725	CNC(=O)c1cc2c(Oc3ccc(NC(=O)Nc4cc(C(C)(C)C)on4)c(Cl)c3)ccnc2cc1OC [Compound 14, 4-{4-[3-(5-tert-butyl-isoxazol-3-yl)-ureido]-3-chloro-phenoxy}-7-methoxyquinolin-6-carboxylic acid methylamide]
9.78	0.07	10.9	1.35	5.16	16.9	8.2	524	COc1cc2nccc(Oc3ccc(NC(=O)Nc4cc(C(C)(C)C)nn4C)c(Cl)c3)c2cc1C(N)=O [Compound 26, 4-{4-[3-(5-tert-butyl-2-methyl-2H-pyrazol-3-yl)-ureido]-3-chloro-phenoxy}-7-methoxyquinolin-6-carboxamide]
9.03	0.12	11.6	3.92	9.23	8.44	9.2	351	CCn1nc(C(C)(C)C)cc1NC(=O)Nc1ccc(Oc2ccnc3cc(OC)c(C(N)=O)cc23)cc1Cl [Compound 27, 4-{4-[3-(5-tert-butyl-2-ethyl-2H-pyrazol-3-yl)-ureido]-3-chloro-phenoxy}-7-methoxyquinolin-6-carboxamide]
1.75	1.14	13.9	2.21	5.55	22.1	8.71	195	COc1cc2nccc(Oc3ccc(NC(=O)Nc4cc(C(C)(C)C)on4)c(Cl)c3)c2cc1NC(C)=O [Compound 20]
1.06	1.34	24.1	5.25	4.09	5.43	12.9	516	CNC(=O)c1cc2c(Oc3ccc(NC(=O)Nc4cc(C(C)(C)C)no4)c(Cl)c3)ccnc2cc1OC [Compound 15, 4-{4-[3-(3-tert-butyl-isoxazol-5-yl)-ureido]-3-chloro-phenoxy}-7-methoxyquinolin-6-carboxylic acid methylamide]
0.86	0.84	6.61	5.41	3.19	5.46	9.74	252	COc1cc2nccc(Oc3ccc(NC(=O)Nc4cc(C(C)(C)C)no4)c(Cl)c3)c2cc1C(N)=O [Compound 13, 4-{4-[3-(3-tert-butyl-isoxazol-5-yl)-ureido]-3-chloro-phenoxy}-7-methoxyquinolin-6-carboxamide]
